Laboratory results taken from patent US9849178B2, “Combination of carotenoids and epi-lutein” (Gupron GmbH, priority 2009, dated 2017).
Read-outs that look alike come from different tables or passages of the source.

Experiments:
[1] = Pharmacokinetics of lutein and zeaxanthin with/without epi-lutein after intravenous administration; type: in vivo, wistar rats
Protocol: 14 days wash-out period before this study
Subject: 3 wistar rats each group
Feeding type: intravenous administration
Group A: 4 mg lutein/Kg body weight
Group B: (2 mg lutein+2 mg epi-lutein)/Kg body weight
Group C: 4 mg zeaxanthin/Kg body weight
Group D: (2 mg zeaxanthin 2 mg epi-lutein)/Kg body weight
Blood sampling: 15, 30, 60 minutes, 3 and 6 hours after feeding

[2] = Epi-lutein study: plasma levels after oral administration (gavage) for 7 consecutive days; type: in vivo, Rats, Sprague-Dawley; settings: for Cmax: day 7, rat plasma; for AUC / AUC(0-t): rat, plasma; for AUC: read-out: AUC0-τ; for AUC(0-t): read-out: AUC0-12 h; for AUC0-12 h (dose corrected) / AUC0-τ (dose corrected) / Cmax (dose corrected): dose corrected to 0.1 mg Lutein/kg BW
Protocol: [table] Study Design: Oral administration (gavage) of Treatment I for 7 consecutive days in 5 rats followed by a 14 days wash-out period and oral administration (gavage) of Treatment II for 7 consecutive days Blood Sampling: On day 7 of treatment prior to treatment and 15 min, 1, 3, 6, 9, 12 and 24 hours after treatment. About 400 μL blood were be transferred to Vacutainer tubes containing EDTA. Whole blood samples were centrifuged, as soon as possible from the designated time of collection, at 1200 g for approximately 10 minutes. All plasma samples (at least 200 μL) were be stored deep frozen at ≦−30° C., until shipping on dry ice. [table] Plasma Analysis: Lutein, Epilutein, Zeaxanthin and Oxidized metabolites

[3] = Treatment II (mixture together with epi-lutein)

Work on `CC1=C[C@H](O)CC(C)(C)[C@H]1/C=C/C(C)=C/C=C/C(C)=C/C=C/C=C(C)/C=C/C=C(C)/C=C/C1=C(C)C[C@@H](O)CC1(C)C` [Lutein, (3R,3′R,6′R)-beta, epsilon-carotene-3,3′-diol] yielded an AUC(0-inf) ([1]; rat, 4 mg/kg, heading: AUC0-inf, wistar rats, intravenous, A 4 mg lutein/Kg, B 2 mg lutein+2 mg epi-lutein/Kg, C 4 mg zeaxanthin/Kg, D 2 mg zeaxanthin+2 mg epi-lutein/Kg, lutein (A,B) or zeaxanthin (C,D) in plasma) of 21300 ng·h/mL, an AUC(0-t) ([1]; rat, 4 mg/kg, heading: AUC0-t, wistar rats, intravenous, A 4 mg lutein/Kg, B 2 mg lutein+2 mg epi-lutein/Kg, C 4 mg zeaxanthin/Kg, D 2 mg zeaxanthin+2 mg epi-lutein/Kg, lutein (A,B) or zeaxanthin (C,D) in plasma) of 11700 ng·h/mL and a half-life ([1]; rat, 4 mg/kg, wistar rats, intravenous, A 4 mg lutein/Kg, B 2 mg lutein+2 mg epi-lutein/Kg, C 4 mg zeaxanthin/Kg, D 2 mg zeaxanthin+2 mg epi-lutein/Kg, lutein (A,B) or zeaxanthin (C,D) in plasma, read-out: T½) of 5.08 h. For the same compound, the “plasma half life after treatment with epi-lutein” value ([1]; wistar rats, intravenous, with vs without epi-lutein) was “substantially prolonged”, the “increase in the pharmacokinetic parameters of lutein, dose corrected” value ([2]; 0.1 mg lutein/kg BW mixed with approximately 0.1 mg epi-lutein/kg BW vs single compound, time interval 0-12 hours) was “about 100%” and the Cmax ([2]; Sprague-Dawley, 0.282 mg/kg BW, Treatment I (0.282 mg lutein/kg BW, oral gavage), read-out: Cmax) was 941 ng/mL. For the same compound, the AUC ([2]; Sprague-Dawley, 0.282 mg/kg BW, Treatment I (0.282 mg lutein/kg BW, oral gavage), day 7, τ 24 hours) was 18100 ng·h/mL, the AUC(0-t) ([2]; Sprague-Dawley, 0.282 mg/kg BW, Treatment I (0.282 mg lutein/kg BW, oral gavage), day 7) was 9780 ng·h/mL and the AUC ([2]; Sprague-Dawley, Treatment II (0.147 mg lutein + 0.135 mg epi-lutein/kg BW, oral gavage), day 7, τ 24 hours) was 14300 ng·h/mL. For the same compound, the AUC(0-t) ([2]; Sprague-Dawley, Treatment II (0.147 mg lutein + 0.135 mg epi-lutein/kg BW, oral gavage), day 7) was 9340 ng·h/mL, the Cmax ([2]; Sprague-Dawley, Treatment II (0.147 mg lutein + 0.135 mg epi-lutein/kg BW, oral gavage), read-out: Cmax) was 939 ng/mL and the “AUC0-12 h (dose corrected)” value ([2]; Treatment I (pure compound)) was 3261 ng × h × ml^−1/0.1 mg Lut/kg B. The “AUC0-τ (dose corrected)” value ([2]; Treatment I (pure compound)) was 6050 ng × h × ml^−1/0.1 mg Lut/kg B, the “Cmax (dose corrected)” value ([2]; Treatment I (pure compound)) was 314 [ng/ml]/0.1 mg Lut/kg BW and the “AUC0-12 h (dose corrected)” value [2, 3] was 6230 ng × h × ml^−1/0.1 mg Lut/kg B. For the same compound, the “AUC0-τ (dose corrected)” value [2, 3] was 9560 ng × h × ml^−1/0.1 mg Lut/kg B and the “Cmax (dose corrected)” value [2, 3] was 626 [ng/ml]/0.1 mg Lut/kg BW.

With `CC1=C(/C=C/C(C)=C/C=C/C(C)=C/C=C/C=C(C)/C=C/C=C(C)/C=C/C2=C(C)C[C@@H](O)CC2(C)C)C(C)(C)C[C@H](O)C1` [Zeaxanthin, (3R,3′R)-beta, beta carotene-3,3′-diol] the T½ ([1]; rat, in vivo, iv) was 5 h and the “plasma half life after treatment with epi-lutein” value ([1]; rat, in vivo, iv) was “substantially prolonged”.

For `CC1=C[C@@H](O)CC(C)(C)[C@H]1/C=C/C(C)=C/C=C/C(C)=C/C=C/C=C(C)/C=C/C=C(C)/C=C/C1=C(C)C[C@@H](O)CC1(C)C` [Epi-Lutein, (3R,3′S,6′R)-lutein], the AUC0-12 h ([2]; Treatment II (0.147 mg lutein + 0.135 mg epi-lutein/kg BW, oral gavage), day 7) was 3724 ng·h/mL, the Cmax ([2]; Treatment II (0.147 mg lutein + 0.135 mg epi-lutein/kg BW, oral gavage)) was 428 ng/mL and the AUC0-τ ([2]; Treatment II (0.147 mg lutein + 0.135 mg epi-lutein/kg BW, oral gavage), day 7, τ 24 hours) was 6286 ng·h/mL.
